In one series the test system is HIV-1 (NL4-3 strain). Description: Protection against HIV-1 (NL4-3 strain)-induced cytopathogenicity in MT-4 cells, MTT assay. Type of series: cell-based. The note with it: 50% protection from HIV-1 (NL4-3 strain)-induced cytopathogenicity in MT-4 cells. As to the method: (§1) The anti-HIV activity of the synthesized compounds was assessed based on their protection against HIV-1 (NL4-3 strain)-induced cytopathogenicity in MT-4 cells using an MTT assay.[29–33] The cytotoxicity of these compounds was determined based on reduction of the viability of MT-4 cells, as determined by an MTT assay. […] MKN-3 (2) was designed by in silico screening in the same way as MKN-1 (1), and in terms of ligand efficacy MKN-3 (2), with a London dG value of −9.555, has a higher binding affinity than MKN-1 (1), with a London dG value of −9.134, for a CA molecule. The anti-HIV activity of MKN-3 (2) however, is remarkably lower than that of MKN-1 (1). The reason for this might be the poor cell membrane permeability of MKN-3 (2), which therefore could not penetrate the cells. In general, the hydrophobicity of compounds is correlated to their cell membrane permeability. […] We investigated the design of derivatives more hydrophobic than MKN-3 (2). For the design of MKN-3 (2) derivatives, the docking model of MKN-3 (2) and a CA protein was constructed, and a site in the MKN-3 (2) molecule, whose relationship with the interaction with a CA protein is unknown, was sought (Fig. 3). […] Consequently, this amino group was modified by alkylation or amidation, and was converted into a methylene group. Six derivatives (17, 18, 19, TKB063 (25), 26 and 27), with octanoyl, 2-propylpentanoyl, 2-phenylacetyl, i-propyl, n-heptyl or benzyl groups, respectively on the secondary nitrogen atom of the homopiperazine ring of MKN-3 (2), were synthesized. A derivative (29), with a methylene group in place of the secondary amine of the homopiperazine ring, was prepared. […] It was assumed that the anti-HIV activity of these MKN-3 (2) derivatives was increased as a result of their improved hydrophobicity and cell membrane permeability. If the hydrophobicity of such derivatives is higher (log P > 2), the cytotoxicity is higher (CC50 < 10 μM). […] Thus, TKB063 (25) can be seen to have some advantages.
For virus preparation, 293T/17 cells (Invitrogen) maintained in Dulbecco's modified Eagle medium (DMEM) containing 10% FBS, in a T-75 flask were transfected with 10 μg of the pNL4-3 construct by the calcium phosphate method. The supernatant was collected 48 h after transfection, passed through a 0.45 μm filter, and stored at −80 °C as a stock virus.
(§2) The inhibitory activity of test compounds against X4-HIV-1 (NL4-3 strain)-induced cytopathogenicity in MT-4 cells,[83] which are maintained in RPMI-1640 containing 10% FBS, was assessed by an MTT assay. Various concentrations of test compound solutions were added to HIV-1-infected MT-4 cells at multiplicity of infection (MOI) of 0.001, and placed in wells of a 96-well microplate. The test compounds and the reference compounds, e.g. AZT, were diluted by factors of two or five, respectively. After 5 days' incubation at 37 °C in a CO2 incubator, the number of viable cells was determined by the MTT assay. Cytotoxicities of the test compounds were determined based on reduction of the viability of MT-4 cells measured in the MTT assay. A reverse transcriptase inhibitor, AZT, was purchased from Sigma Aldrich and employed as a positive control compound with anti-HIV activity.
Background: Protection from cytopathic effect is a common read-out in antiviral testing.

Series [1] can be described thus: Cytotoxicity: reduction of the viability of MT-4 cells, MTT assay. The class given is cell-based. The note with it: human. As to the method:
as §1, §2
On the technique in general: Tetrazolium dyes change colour on reduction, which living cells bring about.

For a further series, the system named is HIV. Conditions: cited from earlier work.
Another series concerns MT-4 cells. Description: Cytotoxicity: reduction of the viability of MT-4 cells, MTT assay. The class given is cell-based. The note with it: Table 3; 50% reduction of the viability of MT-4 cells. As to the method: as §1, §2
The mark [2] stands for this setting: Human immunodeficiency virus 1, NL43, MT4, Table 4.
Setting [3] is: Table 4, 50% reduction of the viability of MT-4 cells, read-out: CC50.
[4] abbreviates: Human immunodeficiency virus 1, NL43, MT4, Table 2.
Where [5] appears, read: Table 2, 50% reduction of the viability of MT-4 cells, read-out: CC50.
[6] abbreviates: Human immunodeficiency virus 1, NL43, MT4, Table 3.

Like-named read-outs stand apart in the source and are kept apart here.

What is called EC50 is the concentration that produces a half-maximal response. The low end stands for a more potent agent, the high end for a less potent agent. The term CC50 denotes the concentration giving 50% cytotoxicity.

Consider `CCCN1CCCN([C@H](CCSC)C(=O)N2CCNCC2c2c[nH]c3ccccc23)CC1` (stereo partly drawn) [TON02 (37)], for which, in the series on HIV-1 (NL4-3 strain) (setting [2]), the EC50 was determined as 8 µM. In series [1] (setting [3]), the CC50 at 5 days is > 50 µM. `CSCC[C@H](C(=O)N1CCNCC1c1c[nH]c2ccccc12)N1CCCCCC1` (stereo partly drawn) [Compound 29] had an EC50 in the series on HIV-1 (NL4-3 strain) (setting [4]) of 10 µM. Moreover, in series [1] (setting [5]), the cytotoxic concentration (CC50) at 5 days is 32 µM. With `CCN1CCCN([C@H](CCSC)C(=O)N2CCNCC2c2c[nH]c3ccccc23)CC1` (stereo partly drawn) [TON01 (36)], the midpoint of the response in the series with HIV-1 (NL4-3 strain) (setting [2]), the EC50, lay at 20 µM. The half-maximal cytotoxic concentration (CC50) at 5 days in series [1] (setting [3]) is > 50 µM.

As for `C[C@H]1CO[C@@H]2Cn3cc(C(=O)NCc4ccc(F)cc4F)c(=O)c(O)c3C(=O)N12` [Cabotegravir], in the series with HIV (Integrase inhibitor, ref [70]), the IC50/EC50 is 0.00025 µM. In the case of `CSCC[C@H](C)OC(=O)[C@@H](N)c1ccccc1-c1c[nH]c2ccccc12` [MKN-1 (1), reference compound], the results for the EC50 in the series on HIV-1 (NL4-3 strain) (setting [4]) and in the series on HIV-1 (NL4-3 strain) (setting [6]) were 2.2 µM and 2.3 µM, respectively. Besides, the half-maximal cytotoxic concentration (CC50) at 5 days in series [1] (setting [5]) came to 15 µM.

Take Maraviroc: the IC90/EC90 result in the series with HIV (CCR5 antagonist, ref [65]) is “(1.0 nM)”.

Consider `CSCCC(C(=O)N1CCNCC1c1c[nH]c2ccccc12)N1CCCNCC1` (stereo not drawn) [MKN-3 (2)], for which the values for the EC50 in the series on HIV-1 (NL4-3 strain) (setting [4]) and in the series on HIV-1 (NL4-3 strain) (setting [6]) were 42 µM and > 50 µM, respectively. Also, in series [1] (setting [5]), the CC50 at 5 days is > 50 µM. In the series with HIV-1 (NL4-3 strain) (setting [4]), `CCCCCCCC(=O)N1CCCN([C@H](CCSC)C(=O)N2CCNCC2c2c[nH]c3ccccc23)CC1` (stereo partly drawn) [Compound 17] showed a concentration giving a half-maximal response (EC50) of 6 µM. Also, the 50% cytotoxic concentration (CC50) at 5 days in series [1] (setting [5]) is 8.8 µM. Take “Ibalizumab: Antibody, CD4 binding inhibitor”: the IC50/EC50 in the series with HIV (CD4 binding inhibitor, ref [68]) is 0.00029 µM.

For the compound `CCCC(CCC)C(=O)N1CCCN([C@H](CCSC)C(=O)N2CCNCC2c2c[nH]c3ccccc23)CC1` (stereo partly drawn) [Compound 18], in the series with HIV-1 (NL4-3 strain) (setting [4]), the EC50 was > 9.1 µM. Moreover, in series [1] (setting [5]), the CC50 at 5 days came to 9.1 µM. The compound `CSCCC(C(=O)N1CCNCC1c1c[nH]c2ccccc12)N1CCCN(C(C)C)CC1` (stereo not drawn) [TKB063A (25A)] displayed an EC50 in the series on HIV-1 (NL4-3 strain) (setting [6]) of 5 µM. The 50% cytotoxic concentration (CC50) at 5 days in series [1] (Table 3, 50% reduction of the viability of MT-4 cells, read-out: CC50) is > 50 µM. Consider `CCC(C)N1CCCN([C@H](CCSC)C(=O)N2CCNCC2c2c[nH]c3ccccc23)CC1` (stereo partly drawn) [TON03 (38)], for which the half-maximal effective concentration (EC50) in the series on HIV-1 (NL4-3 strain) (setting [2]) turned out to be 6.3 µM. In addition, in series [1] (setting [3]), the CC50 at 5 days was > 50 µM.

For `Cc1cn([C@H]2C[C@H](N=[N+]=[N-])[C@@H](CO)O2)c(=O)[nH]c1=O` [AZT, reference compound], the figures for the EC50 with HIV-1 (NL4-3 strain) (Table 2), in the series on HIV-1 (NL4-3 strain) (Table 3) and in the series with HIV-1 (NL4-3 strain) (Table 4) were 0.021 µM, 0.025 µM and 0.04 µM, respectively. “Enfuvirtide (T-20): Peptide, fusion inhibitor”: in the series on HIV (Fusion inhibitor, ref [66]), the IC50/EC50 is 0.003 µM. Compound `CSCCC(C(=O)N1CCNCC1c1c[nH]c2ccccc12)N1CCCN(C(C)C)CC1` (stereo not drawn) [TKB063B (25B)] showed an EC50 in the series on HIV-1 (NL4-3 strain) (Table 3) of 7.4 µM. In addition, the CC50 in the series with MT-4 cells is > 50 µM. Consider `CC(C)(C#Cc1ccc(-c2ccc(Cl)c3c(NS(C)(=O)=O)nn(CC(F)(F)F)c23)c([C@H](Cc2cc(F)cc(F)c2)NC(=O)Cn2nc(C(F)(F)F)c3c2C(F)(F)[C@@H]2C[C@H]32)n1)S(C)(=O)=O` [Lenacapavir], for which, in the series on HIV (Capsid inhibitor, ref [71]), the IC50/EC50 was 0.0001 µM. As to `CSCC[C@H](C(=O)N1CCNCC1c1c[nH]c2ccccc12)N1CCCN(C(=O)Cc2ccccc2)CC1` (stereo partly drawn) [Compound 19], the midpoint of the response with HIV-1 (NL4-3 strain) (setting [4]), the EC50, lay at 15 µM. In series [1], this compound yielded a CC50 at 5 days of 33 µM. With `COc1cnc(-n2cnc(C)n2)c2c1c(C(=O)C(=O)N1CCN(C(=O)c3ccccc3)CC1)cn2COP(=O)(O)O` [Fostemsavir], the IC50/EC50 in the series on HIV (Entry inhibitor, ref [67]) is 0.0007 µM. Regarding `CSCC[C@H](C(=O)N1CCNCC1c1c[nH]c2ccccc12)N1CCCN(Cc2ccccc2)CC1` (stereo partly drawn) [Compound 27], the EC50 in the series on HIV-1 (NL4-3 strain) (setting [4]) is 2.4 µM. Besides, the cytotoxic concentration (CC50) at 5 days in series [1] (setting [5]) is 9 µM. For `CCCCCCCN1CCCN([C@H](CCSC)C(=O)N2CCNCC2c2c[nH]c3ccccc23)CC1` (stereo partly drawn) [Compound 26], in that order: 2.6 µM and 4.4 µM. On to `C=C(C)[C@@H]1CC[C@]2(NCCN3CCS(=O)(=O)CC3)CC[C@]3(C)[C@H](CC[C@@H]4[C@@]5(C)CC=C(C6=CC[C@@](CF)(C(=O)O)CC6)C(C)(C)[C@@H]5CC[C@]43C)[C@@H]12` [GSK3640254], for which the IC90/EC90 result in the series on HIV (Maturation inhibitor, ref [69]) is given as “(33 nM)”. Take `CSCC[C@H](C(=O)N1CCNCC1c1c[nH]c2ccccc12)N1CCCN(C(C)C)CC1` (stereo partly drawn) [TKB063 (25)]: the EC50 with HIV-1 (NL4-3 strain) (setting [4]) is 4.5 µM; with HIV-1 (NL4-3 strain) (setting [6]), 4.8 µM; in the series on HIV-1 (NL4-3 strain) (setting [2]), 9.5 µM. Further, in series [1] (setting [5]), the CC50 at 5 days is > 50 µM.

(Values after PMC9834766, “Low-molecular-weight anti-HIV-1 agents targeting HIV-1 capsid proteins” (RSC Advances, 2023).)
